According to publication PMC10526248, “Zeolitic Imidazolate Framework-8 Composite-Based Enzyme-Linked Aptamer Assay for the Sensitive Detection of Deoxynivalenol” (Biosensors, 2023):

Biological target: T1, horseradish peroxidase (HRP) (Armoracia rusticana, UniProt P00433)
T1 construct: gene PRXC1A; free enzyme for this row
T1 sequence (P00433 31-338): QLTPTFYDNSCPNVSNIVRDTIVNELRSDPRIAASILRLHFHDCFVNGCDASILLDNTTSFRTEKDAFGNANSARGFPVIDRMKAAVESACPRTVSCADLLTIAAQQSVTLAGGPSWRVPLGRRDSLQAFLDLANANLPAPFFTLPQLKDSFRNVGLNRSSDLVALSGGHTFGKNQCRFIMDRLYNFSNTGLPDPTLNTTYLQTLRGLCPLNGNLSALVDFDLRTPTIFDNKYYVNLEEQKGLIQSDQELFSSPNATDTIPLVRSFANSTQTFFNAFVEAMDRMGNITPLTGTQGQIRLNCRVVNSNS
Test: TMB oxidation, absorbance at […] nm after acid stop
Type: biochemical
Conditions: free HRP; co-substrate H2O2; oxidation also seen with ZIF-8-encapsulated HRP

## Cc1cc(-c2cc(C)c(N)c(C)c2)cc(C)c1N [TMB, 3,3′,5,5′-Tetramethylbenzidine]
  TMB oxidation, absorbance at 450 nm after acid stop: HRP, HRP@ZIF-8, HRP&Au@ZIF-8 and HRP&Au@ZIF-8/cDNA were all able to catalyze TMB oxidation
